According to publication doi:10.1101/2025.05.27.656397, “A new heme enzyme family forms hydrazine groups in diverse biosynthetic pathways” (bioRxiv, 2025):
Values belong to the molecule of their own block, whether it stands above or below them.

Key:
KinIJ = target: T1, KinIJ (Streptomyces murayamaensis, UniProt A0A385LMJ2); experiment: LC-MS detection of L-hydrazinosuccinate; type: biochemical; conditions: methyl or benzyl viologen, anaerobic
T1 construct: gene kinJ; heterodimer, His6 tag on one or both proteins, expressed aerobically in E. coli and purified anaerobically; KinI co-purified or added separately; with Ferredoxin KinI

KinJ = target: T2, KinJ (Streptomyces murayamaensis, UniProt A0A385LMJ2); experiment: EPR spectroscopy; type: binding; conditions: ferric enzyme; axial ligand of heme; no ferredoxin
T2 construct: monomeric when expressed alone; contains heme b

[1] = target: FzmP, co-expressed with KinI (not stated (Streptomyces sp. S-149 or Streptomyces sp. XY332 cloned)); experiment: SEC; anaerobic size exclusion chromatography of proteins expressed alone or co-expressed and purified
[2] = target: T3, KinJ from Streptomyces murayamaensis ATCC 21414 (tag placement not stated for the experiment) (Streptomyces murayamaensis ATCC 21414, UniProt A0A385LMJ2); experiment: reciprocal His6 co-purification (pull-down) and anaerobic SEC of the co-expressed complex; co-expressed in E. coli and purified anaerobically as a complex
T3 chain: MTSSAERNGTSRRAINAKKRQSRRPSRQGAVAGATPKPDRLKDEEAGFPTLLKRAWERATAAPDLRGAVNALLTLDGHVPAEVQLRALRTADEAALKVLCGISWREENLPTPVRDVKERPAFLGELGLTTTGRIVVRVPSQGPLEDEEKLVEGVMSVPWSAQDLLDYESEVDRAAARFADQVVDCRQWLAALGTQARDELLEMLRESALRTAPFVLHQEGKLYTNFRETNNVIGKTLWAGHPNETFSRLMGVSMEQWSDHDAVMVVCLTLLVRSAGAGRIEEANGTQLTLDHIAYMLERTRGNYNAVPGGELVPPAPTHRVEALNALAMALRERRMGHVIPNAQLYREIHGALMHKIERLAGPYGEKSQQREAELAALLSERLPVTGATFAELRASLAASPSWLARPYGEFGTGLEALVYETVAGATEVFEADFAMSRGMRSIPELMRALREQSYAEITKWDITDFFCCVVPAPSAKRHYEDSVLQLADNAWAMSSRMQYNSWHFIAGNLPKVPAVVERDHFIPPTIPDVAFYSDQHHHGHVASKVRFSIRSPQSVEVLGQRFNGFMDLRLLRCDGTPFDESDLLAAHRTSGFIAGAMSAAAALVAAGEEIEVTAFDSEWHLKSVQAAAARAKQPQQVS

Molecule: N[C@@H](CC(=O)O)C(=O)O [L-aspartate]
LC-MS detection of L-hydrazinosuccinate (KinIJ; NaNO2, sodium dithionite): indicating the formation of an N–N bond-containing product from L-Asp and NO2^–

Molecule: O=NO [NO2^–]
LC-MS detection of L-hydrazinosuccinate (KinIJ; L-aspartate, sodium dithionite, 15N-labelled nitrite also used): indicating the formation of an N–N bond-containing product from L-Asp and NO2^– | EPR spectroscopy (KinJ): addition of NO2^– (a strong field ligand) was associated with the formation of a 6-coordinate rhombic

Other lines, results leading:

stoichiometry N [1]: 2
Molecule: FzmP, co-expressed with KinI (enzyme)

binding result [2]: binds
B1: KinI (ferredoxin; tag placement not stated for the experiment) (protein)
chain: MPTNTSDDSLDETVEGSVSGRDKLIAERTRSETWKKPPRRIERAECITCDTCLRACPPEFNAIFDNGLDVVIIPELCSGCPKCVLECPVDCIYVDEDWTPTTDEMWKHIGLTAEGVS
